Experimental data from patent publication US20240270762A1, “PENICILLIN-BINDING PROTEIN INHIBITORS” (priority 2021, published 2024).
Values after ≈ are worked out from the molar mass of the structure shown. Like-named read-outs stand apart in the source and are kept apart here.

Key:
[1] = biological target: T1, PBP3 from Escherichia coli (K-12) (Escherichia coli, UniProt P0AD68); assay: Bocillin-FL fluorescence polarization competition binding, E. coli PBP3
T1 construct: made in house
Outline: (§1)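 Purified PBPs pre-incubated with inhibitor (E. coli PBP3 1.5 μM, 30 min; P. aeruginosa PBP3 0.75 μM, A. baumannii PBP1a 1 μM and PBP3 0.2 μM, 15 min), then Bocillin-FL 0.1 μM (0.05 μM for PBP1a) added; FP read up to 60 min. EC50 = concentration halving bound Bocillin-FL.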

[2] = biological target: T2, PBP3 from Pseudomonas aeruginosa (PAO1) (Pseudomonas aeruginosa, UniProt G3XD46); assay: Bocillin-FL fluorescence polarization competition binding, P. aeruginosa PBP3; conditions: Binding affinity to P. aeruginosa PBP3; fluorescence polarization competition binding assay using Bocillin-FL; read-out: P. aeruginosa PBP3 Potency
T2 construct: made in house
Outline: as §1

P. aeruginosa CDC-0054 = assay: microbe, parasite or virus in culture; type: cell-based; conditions: Pseudomonas aeruginosa, CDC0054, read-out: Minimum inhibitory concentration, P. aeruginosa CDC-0054
P. aeruginosa CDC-0095 = assay: microbe, parasite or virus in culture; type: cell-based; conditions: Pseudomonas aeruginosa, CDC0095, read-out: Minimum inhibitory concentration, P. aeruginosa CDC-0095
A. baumannii CDC-0033 = assay: microbe, parasite or virus in culture; type: cell-based; conditions: Acinetobacter baumannii, CDC0033, read-out: MIC, A. baumannii CDC-0033
[3] = tested on: N. gonorrhoeae ATCC 49226; assay: Liquid broth MIC in Fastidious broth; conditions: Neisseria gonorrhoeae
N. gonorrhoeae FA1090 = assay: Liquid broth MIC in Fastidious broth; conditions: Neisseria gonorrhoeae
N. gonorrhoeae MS11 = assay: Liquid broth MIC in Fastidious broth; conditions: Neisseria gonorrhoeae
N. gonorrhoeae WHO G = assay: Liquid broth MIC in Fastidious broth; conditions: Neisseria gonorrhoeae
N. gonorrhoeae WHO M = assay: Liquid broth MIC in Fastidious broth; conditions: Neisseria gonorrhoeae
Experimental: (§2) Liquid broth-based assays were used for antibacterial testing of PBP inhibitors in Neisseria gonorrhoeae. Briefly, cryo-preserved bacterial cultures of clinical strains were streaked for isolation on Chocolate Agar (72 g/L (2×) GC Agar Base (BD #228950) and 2% (2×) Hemoglobin was autoclaved at 121° C. for 20 minutes to sterilize. Once cooled to ˜50° C. the 2×GC Agar Base and 2× Hemoglobin solutions are combined and 1% IsoVitaleX Enrichment (BD #211876) was added to the solution). Strains were incubated at 36° C. and 5% CO2 to allow growth of colonies, 24 hours before inoculum preparation. 2-fold serial dilutions of test compounds were conducted in a 96 well plate with a final volume of 75 μL per well at 2-fold the final desired concentration in Fastidious broth (Remel #R07664). For preparation of assay inoculum, a direct suspension was prepared by aseptically swabbing 10-15 colonies from agar plates into culture tubes containing 2 mL of fresh sterile saline. After the dilution plates were set up, direct suspensions were then diluted in a cuvette containing sterile saline and the optical density was measured at 600 nm. Inocula were diluted such that 75 μL of this culture in Fastidious broth results in a starting bacterial concentration of 5×10^5 CFU/mL when added to the dilution plates. The plates were incubated for ˜24 hours at 36° C. and 5% CO2.

N. gonorrhoeae WHO K = assay: Liquid broth MIC in Fastidious broth; conditions: Neisseria gonorrhoeae
Experimental: as §2

N. gonorrhoeae WHO Z = assay: Liquid broth MIC in Fastidious broth; conditions: Neisseria gonorrhoeae
[4] = ATCC49226, read-out: Minimum Inhibitory Concentration (MIC), N. gonorrhoeae ATCC 49226
[5] = FA1090, read-out: Minimum Inhibitory Concentration (MIC), N. gonorrhoeae FA 1090
[6] = MS11, read-out: Minimum Inhibitory Concentration (MIC), N. gonorrhoeae MS11
[7] = read-out: Minimum Inhibitory Concentration (MIC), N. gonorrhoeae WHO G
[8] = read-out: Minimum Inhibitory Concentration (MIC), N. gonorrhoeae WHO M
[9] = read-out: Minimum Inhibitory Concentration (MIC), N. gonorrhoeae WHO K
[10] = read-out: Minimum Inhibitory Concentration (MIC), N. gonorrhoeae WHO Z
[11] = ATCC49226, read-out: Minimum Inhibitory Concentration, ATCC 49226
[12] = FA1090, read-out: Minimum Inhibitory Concentration, FA 1090
[13] = MS11, read-out: Minimum Inhibitory Concentration, MS11
[14] = read-out: Minimum Inhibitory Concentration, WHO G
[15] = read-out: Minimum Inhibitory Concentration, WHO M
[16] = read-out: Minimum Inhibitory Concentration, WHO K
[17] = read-out: Minimum Inhibitory Concentration, WHO Z

T2 sequence (G3XD46 whole entry): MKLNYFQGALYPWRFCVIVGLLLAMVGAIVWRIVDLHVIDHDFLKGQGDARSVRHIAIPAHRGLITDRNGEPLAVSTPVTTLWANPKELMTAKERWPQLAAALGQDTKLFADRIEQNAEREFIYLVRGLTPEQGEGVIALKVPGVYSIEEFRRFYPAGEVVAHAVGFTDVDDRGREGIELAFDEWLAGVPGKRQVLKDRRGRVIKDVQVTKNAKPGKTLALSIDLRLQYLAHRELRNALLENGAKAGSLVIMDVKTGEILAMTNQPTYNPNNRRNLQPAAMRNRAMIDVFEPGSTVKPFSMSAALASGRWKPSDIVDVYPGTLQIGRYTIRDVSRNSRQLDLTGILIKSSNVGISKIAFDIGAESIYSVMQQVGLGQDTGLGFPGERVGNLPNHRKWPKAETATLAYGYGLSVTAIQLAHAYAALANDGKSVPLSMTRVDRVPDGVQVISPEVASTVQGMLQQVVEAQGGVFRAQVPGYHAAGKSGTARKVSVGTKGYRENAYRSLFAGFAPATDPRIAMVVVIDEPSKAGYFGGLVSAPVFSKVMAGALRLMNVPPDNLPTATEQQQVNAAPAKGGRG
T1 sequence (P0AD68 1-577): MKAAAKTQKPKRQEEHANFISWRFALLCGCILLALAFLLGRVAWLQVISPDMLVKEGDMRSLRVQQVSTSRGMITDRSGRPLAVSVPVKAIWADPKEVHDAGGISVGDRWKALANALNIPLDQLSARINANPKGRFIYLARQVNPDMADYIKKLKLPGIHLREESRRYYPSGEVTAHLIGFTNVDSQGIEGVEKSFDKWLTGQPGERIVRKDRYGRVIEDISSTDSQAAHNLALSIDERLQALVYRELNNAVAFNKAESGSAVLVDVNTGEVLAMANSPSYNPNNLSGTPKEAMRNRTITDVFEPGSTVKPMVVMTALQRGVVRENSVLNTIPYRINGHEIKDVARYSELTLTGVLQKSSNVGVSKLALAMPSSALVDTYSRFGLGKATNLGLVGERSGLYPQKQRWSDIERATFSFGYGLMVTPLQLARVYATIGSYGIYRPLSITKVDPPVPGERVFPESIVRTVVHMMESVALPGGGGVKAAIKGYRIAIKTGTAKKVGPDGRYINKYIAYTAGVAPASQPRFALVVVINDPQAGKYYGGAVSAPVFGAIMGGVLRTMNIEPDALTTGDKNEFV

For O=C(NCCN1CCN(C(=O)NC(C(=O)N[C@H]2Cc3ccc(F)c(C(=O)O)c3OB2O)c2cc(F)c(O)c(O)c2Cl)C(=O)C1=O)c1cccc(O)c1 (stereo partly drawn) [Example 215, (3R)-3-(2-(2-chloro-5-fluoro-3,4-dihydroxyphenyl)-2-(4-(2-(3-hydroxybenzamido)ethyl)-2,3-dioxopiperazine-1-carboxamido)acetamido)-7-fluoro-2-hydroxy-3,4-dihydro-2H-benzo[e][1,2]oxaborinine-8-carboxylic acid], which EC50 [1] is on record?
The EC50 was under 10 µM.

And the IC50 [2]?
Its IC50 is under 10 µM.

And the MIC (P. aeruginosa CDC-0054)?
The MIC was 8 to 16 µg/mL (≈ 10.7 to 21.5 µM).

And the MIC (P. aeruginosa CDC-0095)?
The MIC was 2 to 4 µg/mL (≈ 2.68 to 5.36 µM).

What about the MIC (A. baumannii CDC-0033) of the same compound?
The MIC was 8 to 16 µg/mL (≈ 10.7 to 21.5 µM).

And the MIC [3, 4]?
The MIC was 16 to 32 µg/mL (≈ 21.5 to 42.9 µM).

And the MIC (N. gonorrhoeae FA1090; [5])?
Its MIC is 1 to 2 µg/mL (≈ 1.34 to 2.68 µM).

And the MIC (N. gonorrhoeae MS11; [6])?
Its MIC is 16 to 32 µg/mL (≈ 21.5 to 42.9 µM).

What about the MIC (N. gonorrhoeae WHO G; [7]) of the same compound?
The MIC was 4 to 8 µg/mL (≈ 5.36 to 10.7 µM).

What about the MIC (N. gonorrhoeae WHO M; [8]) of the same compound?
Its MIC is 4 to 8 µg/mL (≈ 5.36 to 10.7 µM).

What about the MIC (N. gonorrhoeae WHO K; [9]) of the same compound?
Its MIC is over 64 µg/mL.

And the MIC (N. gonorrhoeae WHO Z; [10])?
The MIC was 16 to 32 µg/mL (≈ 21.5 to 42.9 µM).

Which results are given for CN(CCN1CCN(C(=O)NC(C(=O)N[C@H]2Cc3ccc(F)c(C(=O)O)c3OB2O)c2cc(F)c(O)c(O)c2Cl)C(=O)C1=O)S(=O)(=O)c1cccc(C(N)=O)c1 (stereo partly drawn) [Example 224, (3R)-3-(2-(4-(2-((3-carbamoyl-N-methylphenyl)sulfonamido)ethyl)-2,3-dioxopiperazine-1-carboxamido)-2-(2-chloro-5-fluoro-3,4-dihydroxyphenyl)acetamido)-7-fluoro-2-hydroxy-3,4-dihydro-2H-benzo[e][1,2]oxaborinine-8-carboxylic acid]?
EC50 [1]: < 10 µM; IC50 [2]: < 10 µM; MIC (P. aeruginosa CDC-0054): 2 to 4 µg/mL (≈ 2.43 to 4.86 µM); MIC (P. aeruginosa CDC-0095): 2 to 4 µg/mL (≈ 2.43 to 4.86 µM); MIC (A. baumannii CDC-0033): 8 to 16 µg/mL (≈ 9.72 to 19.4 µM); MIC [3, 4]: 16 to 32 µg/mL (≈ 19.4 to 38.9 µM); MIC (N. gonorrhoeae FA1090; [5]): 4 to 8 µg/mL (≈ 4.86 to 9.72 µM); MIC (N. gonorrhoeae MS11; [6]): > 64 µg/mL; MIC (N. gonorrhoeae WHO G; [7]): 16 to 32 µg/mL (≈ 19.4 to 38.9 µM); MIC (N. gonorrhoeae WHO M; [8]): 16 to 32 µg/mL (≈ 19.4 to 38.9 µM); MIC (N. gonorrhoeae WHO K; [9]): > 64 µg/mL; MIC (N. gonorrhoeae WHO Z; [10]): > 64 µg/mL

What does the source list for O=C(NCCCN1CCN(C(=O)NC(C(=O)N[C@H]2Cc3ccc(F)c(C(=O)O)c3OB2O)c2cc(F)c(O)c(O)c2Cl)C1=O)Nc1cccnc1 (stereo partly drawn) [Example 259, (3R)-3-(2-(2-chloro-5-fluoro-3,4-dihydroxyphenyl)-2-(2-oxo-3-(3-(3-(pyridin-3-yl)ureido)propyl)imidazolidine-1-carboxamido)acetamido)-7-fluoro-2-hydroxy-3,4-dihydro-2H-benzo[e][1,2]oxaborinine-8-carboxylic acid]?
EC50 [1]: < 10 µM; IC50 [2]: < 10 µM; MIC (P. aeruginosa CDC-0054): 2 to 4 µg/mL (≈ 2.73 to 5.47 µM); MIC (P. aeruginosa CDC-0095): 2 to 4 µg/mL (≈ 2.73 to 5.47 µM); MIC (A. baumannii CDC-0033): 2 to 4 µg/mL (≈ 2.73 to 5.47 µM); MIC [3, 11]: 16 to 32 µg/mL (≈ 21.9 to 43.7 µM); MIC (N. gonorrhoeae FA1090; [12]): 1 to 2 µg/mL (≈ 1.37 to 2.73 µM); MIC (N. gonorrhoeae MS11; [13]): 16 to 32 µg/mL (≈ 21.9 to 43.7 µM); MIC (N. gonorrhoeae WHO G; [14]): 16 to 32 µg/mL (≈ 21.9 to 43.7 µM); MIC (N. gonorrhoeae WHO M; [15]): 4 to 8 µg/mL (≈ 5.47 to 10.9 µM); MIC (N. gonorrhoeae WHO K; [16]): > 64 µg/mL; MIC (N. gonorrhoeae WHO Z; [17]): 16 to 32 µg/mL (≈ 21.9 to 43.7 µM)

With O=C(CN1CCN(C(=O)NC(C(=O)N[C@H]2Cc3ccc(F)c(C(=O)O)c3OB2O)c2cc(F)c(O)c(O)c2Cl)C(=O)C1=O)Nc1cccc(O)c1 (stereo partly drawn) [Example 231, (3R)-3-(2-(2-chloro-5-fluoro-3,4-dihydroxyphenyl)-2-(4-(2-((3-hydroxyphenyl)amino)-2-oxoethyl)-2,3-dioxopiperazine-1-carboxamido)acetamido)-7-fluoro-2-hydroxy-3,4-dihydro-2H-benzo[e][1,2]oxaborinine-8-carboxylic acid] as the compound, how does the EC50 [1] read?
Its EC50 is under 10 µM.

And the IC50 [2]?
The IC50 was under 10 µM.

And the MIC (P. aeruginosa CDC-0054)?
Its MIC is 2 to 4 µg/mL (≈ 2.73 to 5.47 µM).

And the MIC (P. aeruginosa CDC-0095)?
Its MIC is 2 to 4 µg/mL (≈ 2.73 to 5.47 µM).

What about the MIC (A. baumannii CDC-0033) of the same compound?
Its MIC is 8 to 16 µg/mL (≈ 10.9 to 21.9 µM).

And the MIC [3, 4]?
The MIC was 16 to 32 µg/mL (≈ 21.9 to 43.7 µM).

What about the MIC (N. gonorrhoeae FA1090; [5]) of the same compound?
Its MIC is 1 to 2 µg/mL (≈ 1.37 to 2.73 µM).

And the MIC (N. gonorrhoeae MS11; [6])?
The MIC was 16 to 32 µg/mL (≈ 21.9 to 43.7 µM).

And the MIC (N. gonorrhoeae WHO G; [7])?
Its MIC is 4 to 8 µg/mL (≈ 5.47 to 10.9 µM).

What about the MIC (N. gonorrhoeae WHO M; [8]) of the same compound?
Its MIC is 4 to 8 µg/mL (≈ 5.47 to 10.9 µM).

What about the MIC (N. gonorrhoeae WHO K; [9]) of the same compound?
The MIC was 16 to 32 µg/mL (≈ 21.9 to 43.7 µM).

What about the MIC (N. gonorrhoeae WHO Z; [10]) of the same compound?
The MIC was 16 to 32 µg/mL (≈ 21.9 to 43.7 µM).

O=C(NCCCS(=O)(=O)N1CCN(C(=O)NC(C(=O)N[C@H]2Cc3ccc(F)c(C(=O)O)c3OB2O)c2cc(F)c(O)c(O)c2Cl)C1=O)c1ccccc1 (stereo partly drawn) [Example 268, (3R)-3-(2-(3-((3-benzamidopropyl)sulfonyl)-2-oxoimidazolidine-1-carboxamido)-2-(2-chloro-5-fluoro-3,4-dihydroxyphenyl)acetamido)-7-fluoro-2-hydroxy-3,4-dihydro-2H-benzo[e][1,2]oxaborinine-8-carboxylic acid] was tested. Which EC50 [1] did it give?
Its EC50 is under 10 µM.

What about the IC50 [2] of the same compound?
The IC50 was under 10 µM.

What about the MIC (P. aeruginosa CDC-0054) of the same compound?
Its MIC is 8 to 16 µg/mL (≈ 10.3 to 20.5 µM).

And the MIC (P. aeruginosa CDC-0095)?
Its MIC is 32 to 64 µg/mL (≈ 41 to 82.1 µM).

What about the MIC (A. baumannii CDC-0033) of the same compound?
The MIC was 8 to 16 µg/mL (≈ 10.3 to 20.5 µM).

What about the MIC [3, 11] of the same compound?
Its MIC is 16 to 32 µg/mL (≈ 20.5 to 41 µM).

And the MIC (N. gonorrhoeae FA1090; [12])?
The MIC was 4 to 8 µg/mL (≈ 5.13 to 10.3 µM).

What about the MIC (N. gonorrhoeae MS11; [13]) of the same compound?
Its MIC is 16 to 32 µg/mL (≈ 20.5 to 41 µM).

What about the MIC (N. gonorrhoeae WHO G; [14]) of the same compound?
The MIC was 16 to 32 µg/mL (≈ 20.5 to 41 µM).

What about the MIC (N. gonorrhoeae WHO M; [15]) of the same compound?
Its MIC is 16 to 32 µg/mL (≈ 20.5 to 41 µM).

What about the MIC (N. gonorrhoeae WHO K; [16]) of the same compound?
Its MIC is over 64 µg/mL.

And the MIC (N. gonorrhoeae WHO Z; [17])?
The MIC was 16 to 32 µg/mL (≈ 20.5 to 41 µM).
